Laboratory results as given in patent publication US20200055817A1 (AbbVie Deutschland GmbH & Co. KG, priority 2016, published 2020).
Structures can show the parent of a compound that is named as a salt.

Legend:
Assay type in all cases: cell-based
[1] = target: T1, human EDG8 (S1PR5) receptor (Homo sapiens, UniProt Q9H228); experiment: Aequorin assay, agonist potency, CHO-A21-EDG8#12 cells; conditions: agonist mode, aequorin luminescence; read-out: S1P5 EC50 range #
T1 construct: carries the transgenes human EDG8 (S1PR5) receptor (Acession number NP_110387.1); expressed in transfected cells; host or cells: CHO-A21-EDG8#12 (CHO clone co-expressing mitochondrial aequorin and chimaeric Gaqi5)
T1 sequence (Q9H228 whole entry): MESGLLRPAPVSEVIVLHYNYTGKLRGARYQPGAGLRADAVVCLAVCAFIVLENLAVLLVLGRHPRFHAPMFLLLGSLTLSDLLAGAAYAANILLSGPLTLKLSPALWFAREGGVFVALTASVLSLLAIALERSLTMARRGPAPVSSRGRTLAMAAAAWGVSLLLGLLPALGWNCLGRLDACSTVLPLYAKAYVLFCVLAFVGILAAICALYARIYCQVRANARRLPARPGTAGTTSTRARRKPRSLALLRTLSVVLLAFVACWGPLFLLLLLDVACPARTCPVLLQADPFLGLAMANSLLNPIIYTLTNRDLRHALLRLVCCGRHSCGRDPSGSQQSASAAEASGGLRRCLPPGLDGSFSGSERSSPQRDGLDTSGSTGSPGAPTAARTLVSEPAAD
Method in brief: (§1)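 CHO cells coexpressing receptor, mitochondrial aequorin and Gαqi5 (S1P3 pool: GNA16) were loaded overnight at RT with 5 μM coelenterazine h in 0.1% fatty-acid-free BSA buffer. Cells were injected onto compound, luminescence recorded 90 s and integrated, normalised to digitonin or 20 μM ATP; sigmoidal fit.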

[2] = target: T2, human EDG1 (S1PR1) receptor (Homo sapiens, UniProt P21453); experiment: Aequorin assay, agonist potency, CHO-A21-Edg1#17 cells; conditions: agonist mode, aequorin luminescence; read-out: S1P1 EC50
T2 construct: expressed in transfected cells; host or cells: CHO-A21-Edg1#17 (CHO clone co-expressing mitochondrial aequorin and chimaeric Gaqi5)
T2 sequence (P21453 whole entry): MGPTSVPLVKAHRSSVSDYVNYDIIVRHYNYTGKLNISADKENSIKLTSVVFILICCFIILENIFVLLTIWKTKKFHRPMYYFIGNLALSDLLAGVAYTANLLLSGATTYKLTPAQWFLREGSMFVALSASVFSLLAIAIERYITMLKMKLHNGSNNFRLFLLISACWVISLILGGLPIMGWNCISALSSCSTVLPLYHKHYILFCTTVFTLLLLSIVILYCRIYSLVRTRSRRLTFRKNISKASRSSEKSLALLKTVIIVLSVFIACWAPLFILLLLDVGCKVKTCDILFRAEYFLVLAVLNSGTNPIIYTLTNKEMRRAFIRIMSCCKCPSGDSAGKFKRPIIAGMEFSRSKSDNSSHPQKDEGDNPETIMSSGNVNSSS
Method in brief: as §1

[3] = target: T3, human EDG3 (S1PR3) receptor (Homo sapiens, UniProt Q99500); experiment: Aequorin assay, agonist potency, CHO-A2-S1P3 Mix cells; conditions: agonist mode, aequorin luminescence
T3 construct: expressed in transfected cells; host or cells: CHO-A2-S1P3 Mix (CHO cell pool co-expressing mitochondrial aequorin and GNA16)
T3 sequence (Q99500 whole entry): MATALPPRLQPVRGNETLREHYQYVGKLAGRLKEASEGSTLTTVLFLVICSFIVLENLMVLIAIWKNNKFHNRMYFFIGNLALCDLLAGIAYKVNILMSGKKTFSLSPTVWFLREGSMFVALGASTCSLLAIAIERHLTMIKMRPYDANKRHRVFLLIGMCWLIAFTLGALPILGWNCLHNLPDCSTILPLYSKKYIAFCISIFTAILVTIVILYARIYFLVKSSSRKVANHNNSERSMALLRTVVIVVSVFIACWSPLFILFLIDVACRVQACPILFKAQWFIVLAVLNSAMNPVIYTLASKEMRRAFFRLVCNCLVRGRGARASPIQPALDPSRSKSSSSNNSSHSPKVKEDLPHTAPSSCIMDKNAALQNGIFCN
Procedure: Agonistic activity was measured as described below.
Cell clone CHO-A21-Edg1#17 carries the transgenes human EDG1 (S1PR1) receptor (Accession number NP_001391.2), mitochondrially targeted Aequorin (active part corresponds to accession number 1SL8_A) and chimaeric Gaqi5=Gaq modified with the 5 C-terminal amino-acids replaced with those of the Gai protein (DCGLF). CHO-A2-S1P3 Mix is a cell pool ectopically expressing human EDG3 (S1PR3) receptor (Accession number NP_005217.2) mitochondrially targeted Aequorin (active part has a sequence similar to accession number AY601106.1) and GNA16 (Accession number NP_002059.3). Cell clone CHO-A21-EDG8#12 carries the transgenes human EDG8 (S1PR5) receptor (Acession number NP_110387.1), mitochondrially expressed Aequorin (active part corresponds to accession number 1SL8_A) and chimaeric Gaqi5 (Gaq modified to present the 5 last amino-acids of the Gai protein “DCGLF”; see above). Cells are grown to mid-log phase in culture medium (HAM's F12, 10% FBS, 100 IU/mL penicillin, 100 μg/mL streptomycin, 250 μg/mL Zeocin, 400 μg/mL G418). 18 hours prior to frozen cells preparation, the medium is changed to remove the antibiotics.
18 hours prior to the test, vials of frozen cells are quickly thawed in a 37° C. water bath, cells are recovered by centrifugation and resuspended in assay buffer (DMEM/HAM's F12 with HEPES, without phenol red+0.1% fatty acid-free BSA). Cells are gently agitated in suspension overnight at RT in presence of 5 μM of Coelenterazine h (Molecular Probes). On the day of the test, cells are diluted to their final working concentrations in assay buffer and agitated in suspension for 1 h at RT. Cells are then placed in the luminescence reader (Hamamatsu Functional Drug Screening System 6000, FDSS6000). During cells incubation, compounds are prepared in 100% DMSO, and subsequently diluted in assay buffer. Compounds are then dispensed in the assay plate (black, clear-bottom, 384-well plate). After binding of agonists to the human S1P receptor the intracellular calcium concentration increases and binding of calcium to the Aequorin/Coelenterazine complex leads to an oxidation reaction of coelenterazine, which results in the production of Aequorin, coelenteramide, CO2 and light (Dmax 469 nm). The luminescent response is dependent on the agonist concentration. For agonist testing, 30 μL of cell suspension are injected on 30 μL of test compound or reference agonist in the assay plate. The resulting emission of light is recorded for 90 seconds using the FDSS6000. Dose response curves with the reference compounds are performed before testing the compounds. S1P is the reference agonist and JTE-013 the reference antagonist for S1P2.
Luminescence data are integrated over the reading interval for agonist and antagonist modes. To standardize the emission of recorded light (determination of the “100% signal”) across plates and across different experiments, some of the wells contain 100 μM digitonin or a saturating concentration of ATP (20 μM). Plates also contain the reference agonist at a concentration equivalent to the EC80 obtained during the test validation and the EC100. Dose-response data from test compounds were analyzed with XLfit (IDBS) software using nonlinear regression applied to a sigmoidal dose-response model and the following equation: […]

[4] = target: T4, S1P4 (Homo sapiens, UniProt O95977); experiment: Aequorin assay, agonist potency, S1P4; conditions: agonist mode, aequorin luminescence
T4 sequence (O95977 1-384): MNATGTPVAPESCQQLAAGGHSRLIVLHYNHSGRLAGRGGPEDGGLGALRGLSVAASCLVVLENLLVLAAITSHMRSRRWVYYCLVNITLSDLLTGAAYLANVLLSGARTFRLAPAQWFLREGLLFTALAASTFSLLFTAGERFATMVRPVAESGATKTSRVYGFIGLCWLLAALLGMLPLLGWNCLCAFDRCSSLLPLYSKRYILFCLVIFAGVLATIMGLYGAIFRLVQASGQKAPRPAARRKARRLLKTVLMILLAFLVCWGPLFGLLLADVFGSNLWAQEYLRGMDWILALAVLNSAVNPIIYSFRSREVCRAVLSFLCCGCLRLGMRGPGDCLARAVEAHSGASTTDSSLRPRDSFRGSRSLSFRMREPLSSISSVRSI
Method in brief: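 Cells loaded overnight at RT with 5 μM coelenterazine h in DMEM/HAM's F12 with HEPES plus 0.1% fatty acid-free BSA, then injected onto compounds; agonist-induced calcium luminescence recorded for 90 s and integrated. Signal normalised to digitonin (100 μM) or ATP (20 μM) wells, S1P as reference agonist; sigmoidal nonlinear regression.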

EC50 [1] [nM]	EC50 [2] [nM]	EC50 [3] [nM]	EC50 [4] [nM]	SMILES
≤ 10	> 1000	> 1000	< 1000	O=C(O)CN1CC2(Cc3ccc(OCc4ccccc4C4CC4)cc3C2)C1 [Example 111, 2-(5′-((2-cyclopropylbenzyl)oxy)-1′,3′-dihydrospiro[azetidine-3,2′-inden]-1-yl)acetic acid]
≤ 10	> 1000	> 1000	< 1000	CCc1cccc(F)c1COc1ccc2c(c1)CC1(CCN(CC(=O)O)CC1)C2 [Example 159, 2-(5-((2-ethyl-6-fluorobenzyl)oxy)-1,3-dihydrospiro[indene-2,4′-piperidin]-1′-yl)acetic acid hydrochloride]
≤ 10	> 1000	> 1000	< 1000	O=C(O)CN1CCC2(CC1)Cc1ccc(OCc3c(Cl)cccc3Cl)cc1C2 [Example 160, 2-(5-((2,6-dichlorobenzyl)oxy)-1,3-dihydrospiro[indene-2,4′-piperidin]-1′-yl)acetic acid]
≤ 10	> 1000	> 1000	< 1000	CCc1cccc(Cl)c1COc1ccc2c(c1)CC1(CCN(CC(=O)O)CC1)C2 [Example 161, 2-(5-((2-chloro-6-ethylbenzyl)oxy)-1,3-dihydrospiro[indene-2,4′-piperidin]-1′-yl)acetic acid hydrochloride]
